Series [1] in a line: Inhibition of 6His tagged NOXO1 (149 to 286 residues) (unknown origin) expressed in Escherichia coli BL21 (DE3)-CYBA (unknown origin) protein-protein interaction assessed as apparent dissociation constant at 200 uM by isothermal titration calorimetry. The settings on record: read-out: Kd(app). Details: species or system Homo sapiens.
Series [2] in a line: Cytotoxicity against human Keratinocyte assessed as cell viability at 1 uM incubated for 48 hrs by MTT assay (reference value: 100 + /-7 %). Type of series: toxicity, cell-based. The following applies: keratinocytes, read-out: Activity.
The test system of series [3] is Keratinocyte. Briefly: Cytotoxicity against human Keratinocyte incubated for 48 hrs by MTT assay. Type of series: toxicity, cell-based.
A short description of series [4]: Cytoprotective activity in human Keratinocyte assessed as decrease in UV-radiation induced DNA damage by measuring CPD intensity preincubated for 24 hrs followed by UV exposure and measured after 24 hrs by immunohistological analysis (reference value: 0.003 a.u.). The following applies: time 48 hrs. In kind it is functional.
A short description of series [5]: Cytoprotective activity in human Keratinocyte assessed as fold decrease in UV-radiation induced DNA damage preincubated for 24 hrs followed by UV exposure and measured after 24 hrs by immunohistological analysis. The following applies: time 48 hrs. In kind it is functional.
The subject of series [6] is Keratinocyte. Kind of series: Cytoprotective activity in human Keratinocyte assessed as effect on CPD intensity incubated for 24 hrs by immunohistological analysis. Type of series: functional, cell-based.
In series [7] the target is T1, NADPH oxidase organizer 1 (Homo sapiens) (UniProt Q8NFA2).
T1 sequence (whole entry): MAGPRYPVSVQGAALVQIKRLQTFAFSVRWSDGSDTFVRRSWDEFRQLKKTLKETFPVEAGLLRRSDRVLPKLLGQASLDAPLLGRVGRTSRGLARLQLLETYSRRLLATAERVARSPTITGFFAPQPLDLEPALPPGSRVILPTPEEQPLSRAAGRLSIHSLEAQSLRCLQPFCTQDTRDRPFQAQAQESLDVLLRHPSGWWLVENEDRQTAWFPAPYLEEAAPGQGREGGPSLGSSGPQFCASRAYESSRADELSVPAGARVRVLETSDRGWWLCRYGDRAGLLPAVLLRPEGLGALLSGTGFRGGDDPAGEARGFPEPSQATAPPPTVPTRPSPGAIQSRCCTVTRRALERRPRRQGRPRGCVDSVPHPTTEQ
Briefly: Binding affinity to 6His tagged NOXO1 (149 to 286 residues) (unknown origin) expressed in Escherichia coli BL21 (DE3) assessed as change in enthalpy at 800 uM by isothermal titration calorimetry.

For series [8], the species on record is Homo sapiens. Kind of series: Inhibition of 6His tagged NOXO1 (149 to 286 residues) (unknown origin) expressed in Escherichia coli BL21 (DE3)-CYBA (unknown origin) protein-protein interaction by MALDI-TOF-MS analysis.
A short description of series [9]: Inhibition of 6His tagged NOXO1 (149 to 286 residues) (unknown origin) expressed in Escherichia coli BL21 (DE3)-CYBA (unknown origin) protein-protein interaction assessed as apparent dissociation constant at 800 uM by isothermal titration calorimetry. Also on record: species or system Homo sapiens. The following applies: read-out: Kd(app).

Calls of active or inactive are those of the source. The calls are words filed in the database; no cut-off is given here.

For the compound `COCCOCCC(=O)N1CCC(CNc2ccccc2-c2cccc(C(N)=O)c2)CC1`, the Kd in series [1] is 44 µM.
Consider `NC(=O)c1cccc(-c2ccccc2NCC2CCN(C(=O)CCOCCOCCOCCOCCNC(=O)CCCC[C@H]3SC[C@H]4NC(=O)N[C@H]43)CC2)c1`, for which the viability at 48 h, 1 µM in series [2] came out at 101%. In addition, the Activity entry is recorded as “Non-Toxic” in series [3] and 0.004 a.u in [4]. The “fold change (FC)” value in [5] stood at 175. Moreover, the outcome in series [6] was inactive. Besides, the Kd in [1] was determined as 39 µM. Moreover, the deltaH in series [7] came out at 5.2 kcal/mol. Moreover, the inhibition result in series [8] is “Active”.
As to `NC(=O)c1cccc(-c2ccccc2NCC2CCNCC2)c1`, the viability at 48 h, 1 µM in series [2] was found to be 106%. The Activity entry in series [3] is listed as “Non-Toxic”. Moreover, the Kd in [9] turned out to be 4.1 µM.
Regarding `COCCOCCC(=O)N(C)Cc1ccccc1`, the Kd in series [1] was found to be 2.3 µM.

Values taken from ChEMBL document CHEMBL5257083, “Identification of a Noxo1 inhibitor by addition of a polyethylene glycol chain” (Bioorg Med Chem, 2023).
